Laboratory results taken from patent US20180148418A1, “AMIDO-SUBSTITUTED CYCLOHEXANE DERIVATIVES” (Bayer Pharma Aktiengesellschaft, priority 2015, published 2018).
pIC50: −log10 of the molar value. Counter-ions that a name gives are not always drawn.

Experiments:
TNKS1 = biological target: T1, TNKS1 (Homo sapiens, UniProt O95271); test: TNKS1 Assay B (auto-parsylation, [3H]-NAD+ SPA); assay type: biochemical; conditions: 6 nM TNKS1, auto-parsylation, over night at room temperature
T1 construct: purchased BPS Bioscience, San Diego, USA 80579 (TNKS1 Histone Ribosylation Assay Kit)
T1 sequence (O95271 1-1327): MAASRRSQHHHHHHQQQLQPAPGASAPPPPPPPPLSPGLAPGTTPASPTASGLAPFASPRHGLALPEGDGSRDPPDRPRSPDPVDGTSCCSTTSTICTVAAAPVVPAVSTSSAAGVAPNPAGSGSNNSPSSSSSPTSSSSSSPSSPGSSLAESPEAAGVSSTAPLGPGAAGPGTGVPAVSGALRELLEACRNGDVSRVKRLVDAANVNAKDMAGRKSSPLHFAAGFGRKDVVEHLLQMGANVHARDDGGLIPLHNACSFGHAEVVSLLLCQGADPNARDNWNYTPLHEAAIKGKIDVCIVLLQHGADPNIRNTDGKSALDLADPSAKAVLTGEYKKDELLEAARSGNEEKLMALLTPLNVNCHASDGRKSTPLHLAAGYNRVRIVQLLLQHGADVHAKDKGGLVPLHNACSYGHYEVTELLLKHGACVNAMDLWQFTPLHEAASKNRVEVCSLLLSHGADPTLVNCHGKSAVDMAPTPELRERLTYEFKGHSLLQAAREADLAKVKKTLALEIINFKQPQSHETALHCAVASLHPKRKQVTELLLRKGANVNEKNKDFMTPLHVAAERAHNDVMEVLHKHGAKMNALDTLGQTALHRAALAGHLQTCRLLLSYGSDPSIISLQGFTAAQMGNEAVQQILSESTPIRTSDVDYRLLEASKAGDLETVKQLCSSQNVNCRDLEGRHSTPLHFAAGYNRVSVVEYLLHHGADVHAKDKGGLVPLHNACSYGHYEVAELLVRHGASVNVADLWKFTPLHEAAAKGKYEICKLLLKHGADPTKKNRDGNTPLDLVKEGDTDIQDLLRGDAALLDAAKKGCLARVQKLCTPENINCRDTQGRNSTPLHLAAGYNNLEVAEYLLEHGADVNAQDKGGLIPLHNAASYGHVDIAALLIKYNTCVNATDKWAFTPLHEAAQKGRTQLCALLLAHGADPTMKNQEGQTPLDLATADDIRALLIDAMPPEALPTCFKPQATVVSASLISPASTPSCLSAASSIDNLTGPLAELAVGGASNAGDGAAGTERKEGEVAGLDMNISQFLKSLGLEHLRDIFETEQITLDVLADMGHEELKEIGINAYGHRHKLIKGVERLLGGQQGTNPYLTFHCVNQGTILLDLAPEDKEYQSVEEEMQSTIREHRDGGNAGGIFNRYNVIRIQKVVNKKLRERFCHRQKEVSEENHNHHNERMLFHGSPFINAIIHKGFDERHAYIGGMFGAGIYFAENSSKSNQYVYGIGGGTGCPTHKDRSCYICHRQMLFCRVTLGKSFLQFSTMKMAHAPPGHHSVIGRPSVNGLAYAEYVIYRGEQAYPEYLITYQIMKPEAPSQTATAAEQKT

[1] = test system: wildtype Wnt signaling cascade; test: HEK293 TOP assay (Super TopFlash luciferase reporter, Wnt-3a stimulated); assay type: cell-based; conditions: Homo sapiens, HEK293 TOP reporter cells, Wnt3a at EC50, 16 hours
Procedure, shortened: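 Compound series (50 μM down to 15 nM, 3.16-fold) diluted from DMSO 50-fold into CAFTY buffer, pH 7.4, 2 mM Ca^2+, 0.01% BSA, applied to Wnt-3a-stimulated HEK293 TopFlash and FOP reporter lines in parallel. Cells seeded 10000/well 24 h before; luciferase signal measured.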

pIC50 (TNKS1)	pIC50 ([1]; HEK293, 16 h)	SMILES	pIC50 [1]
5.55	5.74	COCC(C)NC(=O)c1nc[nH]c1C(=O)N[C@H]1CC[C@H](C(=O)Nc2cc(N3CCOCC3)ccc2Cl)CC1 (stereo partly drawn) [Example 91, N^5-(trans-4-{[2-chloro-5-(morpholin-4-yl)phenyl]carbamoyl}cyclohexyl)-N^4-(1-methoxypropan-2-yl)-1H-imidazole-4,5-dicarboxamide]	
6.42		CNC(=O)c1[nH]cnc1C(=O)NC1CCC(C(=O)Nc2ccc(F)cc2Cl)CC1C (racemic) [Example 39, N^4-{4-[(2-chloro-4-fluorophenyl)carbamoyl]-2-methylcyclohexyl}-N^5-methyl-1H-imidazole-4,5-dicarboxamide]	

More lines, now with the values behind:

SMILES	pIC50 (TNKS1)	pIC50 ([1]; HEK293, 16 h)	pIC50 [1]
CNC(C)c1cnc2c(C(=O)N[C@H]3CC[C@H](C(=O)Nc4ccc(F)cc4Cl)CC3)cnn2c1C (stereo partly drawn) [Example 54, N-{trans-4-[(2-chloro-4-fluorophenyl)carbamoyl]cyclohexyl}-7-methyl-6-[1-(methylamino)ethyl]pyrazolo[1,5-a]pyrimidine-3-carboxamide formic acid salt]	6.34		6.21
Cc1c(C(C)N(C)C)cnc2c(C(=O)N[C@H]3CC[C@H](C(=O)Nc4ccc(F)cc4Cl)CC3)cnn12 (mixture of isomers) [Example 55, N-{trans-4-[(2-chloro-4-fluorophenyl)carbamoyl]cyclohexyl}-6-[1-(dimethylamino)ethyl]-7-methylpyrazolo[1,5-a]pyrimidine-3-carboxamide formic acid salt]	6.13		6.55
O=C(NCCN1CCCCC1)c1nc[nH]c1C(=O)N[C@H]1CC[C@H](C(=O)Nc2ccc(F)cc2Cl)CC1 [Example 2, N^5-{trans-4-[(2-chloro-4-fluorophenyl)carbamoyl]cyclohexyl}-N^4-[2-(piperidin-1-yl)ethyl]-1H-imidazole-4,5-dicarboxamide]	6.26	7.60	
